# In ChEMBL document CHEMBL4813993, “Design and synthesis of diosgenin derivatives as apoptosis inducers through mitochondria-related pathways” (Eur J Med Chem, 2021):
# Legend:
# Assay type in all cases: functional, cell-based
# A549 = assay: Cytotoxicity against human A549 cells assessed as inhibition of cell growth incubated for 48 hrs by CCK-8 assay; conditions: A549, 48 h
# MCF7 = assay: Cytotoxicity against human MCF7 cells assessed as inhibition of cell growth incubated for 48 hrs by CCK-8 assay; conditions: MCF7, 48 h
# MKN-45 = assay: Cytotoxicity against human MNK45 cells assessed as inhibition of cell growth incubated for 48 hrs by CCK-8 assay; conditions: MKN-45, 48 h
# T-24 = assay: Cytotoxicity against human T24 cells assessed as inhibition of cell growth incubated for 48 hrs by CCK-8 assay; conditions: T-24, 48 h
# HepG2 = assay: Cytotoxicity against human HepG2 cells assessed as inhibition of cell growth incubated for 48 hrs by CCK-8 assay; conditions: HepG2, 48 h
# K562 = assay: Cytotoxicity against human K562 cells assessed as inhibition of cell growth incubated for 48 hrs by CCK-8 assay; conditions: K562, 48 h
SMILES,IC50 (A549) [µM],IC50 (MCF7) [µM],IC50 (MKN-45) [µM],IC50 (T-24) [µM],IC50 (HepG2) [µM],IC50 (K562) [µM]
C[C@@H]1CC[C@@]2(OC1)O[C@H]1C[C@H]3[C@@H]4CC=C5C[C@@H](OC(=O)CN)CC[C@]5(C)[C@H]4CC[C@]3(C)[C@H]1[C@@H]2C [GLYCINE DIOSGENYL ESTER],18,10.3,16.2,9.98,14.9,7.68
C[C@@H]1CC[C@@]2(OC1)O[C@H]1C[C@H]3[C@@H]4CC=C5C[C@@H](OC(=O)[C@H](C)N)CC[C@]5(C)[C@H]4CC[C@]3(C)[C@H]1[C@@H]2C,18.1,> 30,11.5,9.1,> 30,15.5
CC(C)C[C@H](N)C(=O)O[C@H]1CC[C@@]2(C)C(=CC[C@H]3[C@@H]4C[C@@H]5O[C@]6(CC[C@@H](C)CO6)[C@@H](C)[C@@H]5[C@@]4(C)CC[C@@H]32)C1,> 30,> 30,10.4,8.83,> 30,10.5
CC(C)[C@H](N)C(=O)O[C@H]1CC[C@@]2(C)C(=CC[C@H]3[C@@H]4C[C@@H]5O[C@]6(CC[C@@H](C)CO6)[C@@H](C)[C@@H]5[C@@]4(C)CC[C@@H]32)C1,23,> 30,13.4,11.8,27.7,16.5
CC(=O)O[C@H]1CC[C@@]2(C)C(=CC[C@H]3[C@@H]4C[C@@H]5O[C@H](CC[C@@H](C)COC(=O)[C@@H]6CCCN6)[C@@H](C)[C@@H]5[C@@]4(C)CC[C@@H]32)C1,22.3,> 30,17.3,12.2,18.5,27.7
CC(=O)O[C@H]1CC[C@@]2(C)C(=CC[C@H]3[C@@H]4C[C@@H]5O[C@H](CC[C@@H](C)COC(=O)CN)[C@@H](C)[C@@H]5[C@@]4(C)CC[C@@H]32)C1,> 30,> 30,17.3,10.4,> 30,15.2
O=c1[nH]cc(F)c(=O)[nH]1 [FLUOROURACIL],,18.6,21.4,12.9,18.9,20.2
C[C@@H]1CC[C@@]2(OC1)O[C@H]1C[C@H]3[C@@H]4CC=C5C[C@@H](OC(=O)[C@@H](N)Cc6ccccc6)CC[C@]5(C)[C@H]4CC[C@]3(C)[C@H]1[C@@H]2C,> 30,25.4,11.4,10.6,26.1,8.59
CC(=O)O[C@H]1CC[C@@]2(C)C(=CC[C@H]3[C@@H]4C[C@@H]5O[C@H](CC[C@@H](C)COC(=O)[C@H](C)N)[C@@H](C)[C@@H]5[C@@]4(C)CC[C@@H]32)C1,27.6,> 30,10.7,11.4,> 30,17.5
C[C@@H]1CC[C@@]2(OC1)O[C@H]1C[C@H]3[C@@H]4CC=C5C[C@@H](OC(=O)[C@@H]6CCCN6)CC[C@]5(C)[C@H]4CC[C@]3(C)[C@H]1[C@@H]2C,20.6,11.4,5.47,9.65,16.4,7.47
CC(=O)O[C@H]1CC[C@@]2(C)C(=CC[C@H]3[C@@H]4C[C@@H]5O[C@H](CC[C@@H](C)COC(=O)[C@@H](N)CC(C)C)[C@@H](C)[C@@H]5[C@@]4(C)CC[C@@H]32)C1,> 30,21.2,12.1,5.67,12.9,11.5
C[C@@H]1CC[C@@]2(OC1)O[C@H]1C[C@H]3[C@@H]4CC=C5C[C@@H](O)CC[C@]5(C)[C@H]4CC[C@]3(C)[C@H]1[C@@H]2C [DISOGENIN],32.9,28.5,78.3,28.9,48.4,30
